According to ChEMBL document CHEMBL1201862, “PubChem BioAssay data set” (2004):
The source made the active and inactive calls.

Columns and labels:
[1] = target: T1, Mannose-6-phosphate isomerase (Homo sapiens, UniProt P34949); experiment: human PMI inhibitors, high substrate, primary screen, biochemical, fluorescence intensity, high mannose 6-phosphate (AID 1220)
T1 sequence (P34949 whole entry): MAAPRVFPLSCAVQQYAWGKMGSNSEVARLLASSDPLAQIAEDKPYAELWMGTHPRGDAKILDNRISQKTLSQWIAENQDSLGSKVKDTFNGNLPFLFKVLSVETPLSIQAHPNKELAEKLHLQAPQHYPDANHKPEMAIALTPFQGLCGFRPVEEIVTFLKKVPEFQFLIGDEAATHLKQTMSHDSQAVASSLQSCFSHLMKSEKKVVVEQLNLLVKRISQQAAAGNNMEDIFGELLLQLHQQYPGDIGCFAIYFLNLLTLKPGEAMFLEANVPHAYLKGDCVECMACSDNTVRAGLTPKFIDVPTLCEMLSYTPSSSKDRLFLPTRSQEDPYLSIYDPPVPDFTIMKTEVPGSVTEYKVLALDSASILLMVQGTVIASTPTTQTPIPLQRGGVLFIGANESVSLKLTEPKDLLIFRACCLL

Genome polyprotein = Genome polyprotein (dengue virus type 2, UniProt P29990); experiment: Dengue-2 NS5 methyltransferase inhibitors, primary screen, biochemical, confirmation dose response (AID 588689); format: functional
Chain of Genome polyprotein (P29990 2492-3391 limits assumed): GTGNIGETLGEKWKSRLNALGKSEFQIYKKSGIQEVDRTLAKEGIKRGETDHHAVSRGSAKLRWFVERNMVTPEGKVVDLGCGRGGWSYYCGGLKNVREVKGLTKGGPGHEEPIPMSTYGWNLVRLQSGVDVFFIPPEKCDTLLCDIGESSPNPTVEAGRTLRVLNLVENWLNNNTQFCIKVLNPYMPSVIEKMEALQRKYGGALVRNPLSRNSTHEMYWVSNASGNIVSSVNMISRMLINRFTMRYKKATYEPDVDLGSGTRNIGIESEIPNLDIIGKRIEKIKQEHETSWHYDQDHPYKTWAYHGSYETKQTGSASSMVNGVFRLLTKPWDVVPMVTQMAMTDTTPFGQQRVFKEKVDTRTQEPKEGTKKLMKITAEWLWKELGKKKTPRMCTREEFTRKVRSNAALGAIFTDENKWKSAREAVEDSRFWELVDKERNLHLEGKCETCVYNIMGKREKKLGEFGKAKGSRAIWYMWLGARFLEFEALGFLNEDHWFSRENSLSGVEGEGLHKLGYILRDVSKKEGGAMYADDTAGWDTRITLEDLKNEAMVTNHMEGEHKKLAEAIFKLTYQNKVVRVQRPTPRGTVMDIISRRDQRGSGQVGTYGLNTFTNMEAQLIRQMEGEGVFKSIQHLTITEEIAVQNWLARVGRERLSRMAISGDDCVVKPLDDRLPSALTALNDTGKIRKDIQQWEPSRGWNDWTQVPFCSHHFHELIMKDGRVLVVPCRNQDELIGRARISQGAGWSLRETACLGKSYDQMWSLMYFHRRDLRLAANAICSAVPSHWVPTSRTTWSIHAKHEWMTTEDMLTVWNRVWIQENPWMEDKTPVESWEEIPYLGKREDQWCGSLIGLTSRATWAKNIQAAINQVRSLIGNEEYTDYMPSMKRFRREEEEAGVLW

[2] = cytotoxicity in KRAS-transformed pancreatic duct cells, primary screen, cell-based, fluorescence, HTS (AID 431); format: functional; conditions: Homo sapiens;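 further: cell line used: HPDE-C7K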
Nonstructural protein 1 = Nonstructural protein 1 (Influenza A virus, UniProt Q194T2); format: functional, Influenza A virus (A/California/07/2009(H1N1))
Chain of Nonstructural protein 1 (Q194T2 whole entry): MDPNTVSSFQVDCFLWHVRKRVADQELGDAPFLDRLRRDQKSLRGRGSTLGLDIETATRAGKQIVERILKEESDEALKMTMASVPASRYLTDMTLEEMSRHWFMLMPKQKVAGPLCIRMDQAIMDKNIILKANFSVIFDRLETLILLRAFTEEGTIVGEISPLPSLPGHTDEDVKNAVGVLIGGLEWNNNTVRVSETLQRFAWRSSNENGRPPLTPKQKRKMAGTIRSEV

[3] = target: T1, Mannose-6-phosphate isomerase; experiment: inhibitors of human PMI, primary screen, biochemical, fluorescence intensity, coupled assay (AID 1209)
[4] = cytotoxicity in HPDE-C7 cells, cell-based, fluorescence, HTS (AID 430); format: functional; conditions: Homo sapiens
[5] = target: Transitional endoplasmic reticulum ATPase (Homo sapiens, UniProt P55072, C522A); experiment: Luminescence counterscreen assay for p97 inhibitors: dose response biochemical high throughput screening assay to identify inhibitors of the C522A mutant p97 ATPase: synthesized compounds. [Related pubchem assays: 1481, 1517, 1551 ]
Chain of Transitional endoplasmic reticulum ATPase (Homo sapiens, UniProt P55072, C522A) (P55072 2-806 C522A limits assumed): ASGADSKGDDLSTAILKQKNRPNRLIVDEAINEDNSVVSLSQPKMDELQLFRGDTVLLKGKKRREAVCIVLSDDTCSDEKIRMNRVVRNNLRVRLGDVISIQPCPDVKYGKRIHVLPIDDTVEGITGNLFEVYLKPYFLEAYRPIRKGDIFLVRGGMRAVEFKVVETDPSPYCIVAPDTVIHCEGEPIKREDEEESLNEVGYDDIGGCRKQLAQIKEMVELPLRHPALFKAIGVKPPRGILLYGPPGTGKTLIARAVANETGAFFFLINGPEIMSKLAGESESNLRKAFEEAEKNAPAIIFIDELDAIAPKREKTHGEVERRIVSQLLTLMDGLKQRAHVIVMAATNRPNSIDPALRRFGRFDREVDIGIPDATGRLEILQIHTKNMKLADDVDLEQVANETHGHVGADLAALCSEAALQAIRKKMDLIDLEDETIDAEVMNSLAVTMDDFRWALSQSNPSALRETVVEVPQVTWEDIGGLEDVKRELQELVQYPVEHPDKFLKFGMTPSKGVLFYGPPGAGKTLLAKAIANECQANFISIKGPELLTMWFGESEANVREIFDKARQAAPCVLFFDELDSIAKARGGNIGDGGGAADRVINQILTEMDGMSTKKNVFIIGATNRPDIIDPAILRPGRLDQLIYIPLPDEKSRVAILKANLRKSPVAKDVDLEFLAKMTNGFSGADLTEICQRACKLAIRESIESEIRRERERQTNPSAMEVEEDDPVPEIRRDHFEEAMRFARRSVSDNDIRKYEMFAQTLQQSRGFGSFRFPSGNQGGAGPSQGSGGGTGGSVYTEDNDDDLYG

[6] = target: Transitional endoplasmic reticulum ATPase (Homo sapiens, UniProt P55072); experiment: Luminescence dose response biochemical high throughput screening assay for inhibitors of the p97 ATPase: synthesized compounds. [Related pubchem assays: 1481, 1517 ]
Chain of Transitional endoplasmic reticulum ATPase (Homo sapiens, UniProt P55072) (P55072 whole entry): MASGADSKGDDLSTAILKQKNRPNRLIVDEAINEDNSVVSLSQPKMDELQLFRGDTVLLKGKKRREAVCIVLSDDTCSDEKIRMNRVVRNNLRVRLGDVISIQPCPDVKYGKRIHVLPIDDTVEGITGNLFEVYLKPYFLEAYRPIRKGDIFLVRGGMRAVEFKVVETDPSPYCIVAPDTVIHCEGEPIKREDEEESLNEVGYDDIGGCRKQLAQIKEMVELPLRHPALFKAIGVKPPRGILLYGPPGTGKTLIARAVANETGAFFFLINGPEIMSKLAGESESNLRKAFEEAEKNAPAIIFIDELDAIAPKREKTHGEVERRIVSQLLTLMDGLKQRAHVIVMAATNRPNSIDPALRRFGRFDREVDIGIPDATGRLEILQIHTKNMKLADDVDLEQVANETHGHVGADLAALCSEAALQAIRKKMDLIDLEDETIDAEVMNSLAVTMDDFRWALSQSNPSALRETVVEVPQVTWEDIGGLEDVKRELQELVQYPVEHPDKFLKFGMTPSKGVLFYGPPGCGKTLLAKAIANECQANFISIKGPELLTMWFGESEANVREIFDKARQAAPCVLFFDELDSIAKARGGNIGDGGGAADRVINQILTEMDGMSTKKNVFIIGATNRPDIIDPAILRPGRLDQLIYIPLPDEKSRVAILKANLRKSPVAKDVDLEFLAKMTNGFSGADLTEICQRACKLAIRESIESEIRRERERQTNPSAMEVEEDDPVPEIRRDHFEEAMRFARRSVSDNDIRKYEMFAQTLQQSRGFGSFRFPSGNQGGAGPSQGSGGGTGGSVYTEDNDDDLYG

[7] = target: Serine/threonine-protein phosphatase PP1-alpha catalytic subunit (Homo sapiens, UniProt P62136); experiment: PP1 phosphatase inhibitors, dose response, biochemical, fluorescence (AID 2394)
Chain of Serine/threonine-protein phosphatase PP1-alpha catalytic subunit (P62136 whole entry): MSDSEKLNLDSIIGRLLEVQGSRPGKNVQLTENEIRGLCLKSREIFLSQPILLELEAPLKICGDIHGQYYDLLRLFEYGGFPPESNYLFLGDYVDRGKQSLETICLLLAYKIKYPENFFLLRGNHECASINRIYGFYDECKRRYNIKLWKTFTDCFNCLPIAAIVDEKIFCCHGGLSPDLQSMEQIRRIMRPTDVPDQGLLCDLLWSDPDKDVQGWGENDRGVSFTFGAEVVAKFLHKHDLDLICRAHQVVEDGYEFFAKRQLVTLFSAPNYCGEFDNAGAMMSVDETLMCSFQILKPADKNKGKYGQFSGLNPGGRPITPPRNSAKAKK

[8] = target: T2, Replicative DNA helicase DnaB (Mycobacterium tuberculosis, UniProt P9WMR3); experiment: DnaB intein splicing inhibitors, dose response, biochemical, cell-free fluorescence (AID 449749); format: functional
T2 sequence (P9WMR3 whole entry): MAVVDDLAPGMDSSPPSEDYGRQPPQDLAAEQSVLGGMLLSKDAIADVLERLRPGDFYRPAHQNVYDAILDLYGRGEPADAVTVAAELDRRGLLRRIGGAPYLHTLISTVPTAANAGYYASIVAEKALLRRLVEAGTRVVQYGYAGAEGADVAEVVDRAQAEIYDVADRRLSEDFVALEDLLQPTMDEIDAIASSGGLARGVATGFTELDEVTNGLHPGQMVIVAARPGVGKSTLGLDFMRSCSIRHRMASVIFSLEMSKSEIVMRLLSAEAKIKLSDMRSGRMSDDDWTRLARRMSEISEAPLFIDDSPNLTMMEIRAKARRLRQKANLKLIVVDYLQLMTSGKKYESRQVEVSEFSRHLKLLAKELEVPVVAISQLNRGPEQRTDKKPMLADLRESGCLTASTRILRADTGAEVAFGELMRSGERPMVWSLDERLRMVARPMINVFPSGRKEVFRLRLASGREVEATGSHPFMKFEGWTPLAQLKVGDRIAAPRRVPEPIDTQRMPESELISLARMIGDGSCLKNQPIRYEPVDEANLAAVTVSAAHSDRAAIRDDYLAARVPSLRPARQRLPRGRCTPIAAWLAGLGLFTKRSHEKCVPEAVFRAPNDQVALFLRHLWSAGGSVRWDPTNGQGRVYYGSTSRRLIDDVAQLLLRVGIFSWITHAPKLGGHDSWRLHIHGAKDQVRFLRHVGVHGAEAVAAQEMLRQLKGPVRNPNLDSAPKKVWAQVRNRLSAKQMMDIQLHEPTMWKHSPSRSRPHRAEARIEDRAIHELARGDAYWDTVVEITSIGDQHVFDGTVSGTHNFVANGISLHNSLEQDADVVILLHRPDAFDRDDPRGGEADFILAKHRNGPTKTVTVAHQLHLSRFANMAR

Protein RecA = target: T3, Protein RecA (Mycobacterium tuberculosis, UniProt P9WHJ3); experiment: Fluorescence Cell-Free Homogeneous Dose Retest to Identify Inhibitors of RecA-Intein Splicing Activity. [Related pubchem assays (depositor defined):AID2097, AID2223, AID489010, AID492950]; format: functional
T3 sequence (P9WHJ3 whole entry): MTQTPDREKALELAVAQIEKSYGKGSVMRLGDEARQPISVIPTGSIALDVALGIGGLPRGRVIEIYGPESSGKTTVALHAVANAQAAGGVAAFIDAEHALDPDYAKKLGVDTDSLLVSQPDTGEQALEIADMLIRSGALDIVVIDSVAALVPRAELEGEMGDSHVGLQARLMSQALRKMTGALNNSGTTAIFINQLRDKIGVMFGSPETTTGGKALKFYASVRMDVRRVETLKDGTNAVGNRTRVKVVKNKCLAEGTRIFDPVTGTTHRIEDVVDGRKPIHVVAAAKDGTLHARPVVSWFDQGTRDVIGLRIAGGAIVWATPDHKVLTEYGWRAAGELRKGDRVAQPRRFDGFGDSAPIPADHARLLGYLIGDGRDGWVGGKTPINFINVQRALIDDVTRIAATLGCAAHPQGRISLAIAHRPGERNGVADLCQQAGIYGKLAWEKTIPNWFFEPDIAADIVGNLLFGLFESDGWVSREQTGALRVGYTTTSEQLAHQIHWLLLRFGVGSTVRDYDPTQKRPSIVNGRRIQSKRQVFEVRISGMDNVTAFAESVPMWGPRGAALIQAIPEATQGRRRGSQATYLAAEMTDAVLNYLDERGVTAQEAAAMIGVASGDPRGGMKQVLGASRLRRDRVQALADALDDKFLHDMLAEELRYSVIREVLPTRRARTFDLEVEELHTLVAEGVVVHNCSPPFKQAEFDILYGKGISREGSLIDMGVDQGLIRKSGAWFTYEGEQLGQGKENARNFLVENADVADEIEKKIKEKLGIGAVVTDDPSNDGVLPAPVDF

[9] = target: Serine/threonine-protein phosphatase (Homo sapiens, UniProt Q9BPW0); experiment: PP5 phosphatase inhibitors, dose response, biochemical, fluorescence (AID 2395)
Chain of Serine/threonine-protein phosphatase (Q9BPW0 whole entry): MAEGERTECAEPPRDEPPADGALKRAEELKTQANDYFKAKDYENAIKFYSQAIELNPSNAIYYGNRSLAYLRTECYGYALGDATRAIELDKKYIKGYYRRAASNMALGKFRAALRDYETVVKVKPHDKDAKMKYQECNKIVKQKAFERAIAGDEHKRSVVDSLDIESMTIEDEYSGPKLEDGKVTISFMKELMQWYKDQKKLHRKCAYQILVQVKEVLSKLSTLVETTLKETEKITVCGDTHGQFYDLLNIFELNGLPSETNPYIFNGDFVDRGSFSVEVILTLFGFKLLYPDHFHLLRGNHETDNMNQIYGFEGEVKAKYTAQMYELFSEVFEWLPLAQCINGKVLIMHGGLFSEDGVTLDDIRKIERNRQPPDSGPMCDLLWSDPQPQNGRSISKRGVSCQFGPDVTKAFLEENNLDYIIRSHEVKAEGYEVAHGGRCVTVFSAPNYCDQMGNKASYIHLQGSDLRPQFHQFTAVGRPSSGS

[10] = target: Potassium voltage-gated channel subfamily KQT member 2 (Rattus norvegicus, UniProt O88943, W236L); experiment: KCNQ2 channel potentiators, dose response, mechanism study for KCNQ2 potentiator project, cell-based, automated electrophysiology (AID 2603); format: functional
Chain of Potassium voltage-gated channel subfamily KQT member 2 (O88943 whole entry W236L): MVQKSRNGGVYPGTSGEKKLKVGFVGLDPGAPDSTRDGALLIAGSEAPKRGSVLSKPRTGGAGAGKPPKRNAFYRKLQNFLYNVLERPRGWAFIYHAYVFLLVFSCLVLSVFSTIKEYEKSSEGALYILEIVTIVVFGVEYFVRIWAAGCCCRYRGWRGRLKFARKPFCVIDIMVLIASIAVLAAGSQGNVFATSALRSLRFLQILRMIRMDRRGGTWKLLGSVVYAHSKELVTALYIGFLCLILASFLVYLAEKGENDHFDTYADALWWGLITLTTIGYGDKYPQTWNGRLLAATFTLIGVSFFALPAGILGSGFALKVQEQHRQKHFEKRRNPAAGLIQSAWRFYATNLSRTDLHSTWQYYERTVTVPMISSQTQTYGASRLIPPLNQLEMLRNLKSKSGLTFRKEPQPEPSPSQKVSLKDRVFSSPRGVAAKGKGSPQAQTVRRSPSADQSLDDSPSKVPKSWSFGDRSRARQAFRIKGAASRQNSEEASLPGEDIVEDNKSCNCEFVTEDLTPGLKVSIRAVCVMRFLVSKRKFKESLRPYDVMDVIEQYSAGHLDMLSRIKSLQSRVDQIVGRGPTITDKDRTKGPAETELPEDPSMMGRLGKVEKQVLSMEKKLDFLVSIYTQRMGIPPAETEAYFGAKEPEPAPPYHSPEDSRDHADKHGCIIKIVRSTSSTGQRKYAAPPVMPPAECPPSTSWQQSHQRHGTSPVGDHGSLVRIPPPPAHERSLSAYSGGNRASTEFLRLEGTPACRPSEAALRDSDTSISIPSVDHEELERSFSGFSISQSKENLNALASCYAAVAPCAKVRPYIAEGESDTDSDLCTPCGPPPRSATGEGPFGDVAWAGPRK

[11] = Shn3 3'UTR reporter inhibitors, dose response, cell-based, Clone20 osteoblasts, firefly luciferase, cherry-picked (AID 624132); format: functional;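 further: firefly luciferase luminescence from reporter carrying the Shn3 3'UTR in osteoblasts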
[12] = target: T4, Hepatocyte nuclear factor 4-alpha (Homo sapiens, UniProt P41235); format: functional, cell-based;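 further: biochemical luminescence-based dose-response counterscreen measuring inhibition of HNF4 dimerization, run alongside a screen for blockers of ABHD5–perilipin-5 interaction; split luciferase complementation of HNF4 fusion proteins in cell lysate measuring dimerization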
T4 sequence (P41235 whole entry): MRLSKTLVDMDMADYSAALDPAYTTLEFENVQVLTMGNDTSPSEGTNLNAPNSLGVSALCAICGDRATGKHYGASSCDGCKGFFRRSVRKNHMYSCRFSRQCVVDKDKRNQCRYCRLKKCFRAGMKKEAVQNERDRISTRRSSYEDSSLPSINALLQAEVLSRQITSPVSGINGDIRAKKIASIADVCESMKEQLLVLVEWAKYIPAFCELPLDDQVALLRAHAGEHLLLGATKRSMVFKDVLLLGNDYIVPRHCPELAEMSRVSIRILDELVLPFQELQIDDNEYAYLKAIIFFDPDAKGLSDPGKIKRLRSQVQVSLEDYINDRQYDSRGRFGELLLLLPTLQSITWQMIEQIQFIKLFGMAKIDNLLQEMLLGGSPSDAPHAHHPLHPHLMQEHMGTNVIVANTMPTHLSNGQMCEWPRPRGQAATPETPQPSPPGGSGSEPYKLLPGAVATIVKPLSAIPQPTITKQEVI

[13] = control 3'UTR Renilla luciferase suppression, dose response, counter-screen for Shn3 inhibitor project, cell-based, Clone20-Shn3RL, cherry-picked (AID 624133); format: functional
[14] = HepG2 cell cytotoxicity, dose response, cytotoxicity control for Shn3 inhibitor project, CellTiter-Glo, cherry-picked (AID 624134); format: functional, cell-based
[15] = target: T5, Ubiquitin-conjugating enzyme E2 N (Homo sapiens, UniProt P61088); format: functional;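 further: Dose-response confirmation in a TR-FRET assay detecting UBC13-driven polyubiquitin chain formation, inhibition measured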
T5 sequence (P61088 whole entry): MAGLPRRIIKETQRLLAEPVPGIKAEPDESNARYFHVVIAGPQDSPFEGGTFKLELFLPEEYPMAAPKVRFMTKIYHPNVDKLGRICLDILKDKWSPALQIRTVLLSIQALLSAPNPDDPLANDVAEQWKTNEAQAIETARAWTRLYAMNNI

[16] = Luminescence-based dose response cell-based high throughput screening assay for cytotoxic compounds using the IEC-6 intestinal epithelial cell line. [Related pubchem assays: 1858 (Summary AID.), 1825 (Counterscreen.), 1907 (Confirmation screen.)]; format: functional
[17] = target: Sphingosine 1-phosphate receptor 2 (Homo sapiens, UniProt O95136); experiment: Dose Response Cell Based Assay for Agonists of the S1P2 Receptor of Purchased Analogues. [Related pubchem assays: 729, 843, 854, 736 ]; format: functional
Chain of Sphingosine 1-phosphate receptor 2 (O95136 whole entry): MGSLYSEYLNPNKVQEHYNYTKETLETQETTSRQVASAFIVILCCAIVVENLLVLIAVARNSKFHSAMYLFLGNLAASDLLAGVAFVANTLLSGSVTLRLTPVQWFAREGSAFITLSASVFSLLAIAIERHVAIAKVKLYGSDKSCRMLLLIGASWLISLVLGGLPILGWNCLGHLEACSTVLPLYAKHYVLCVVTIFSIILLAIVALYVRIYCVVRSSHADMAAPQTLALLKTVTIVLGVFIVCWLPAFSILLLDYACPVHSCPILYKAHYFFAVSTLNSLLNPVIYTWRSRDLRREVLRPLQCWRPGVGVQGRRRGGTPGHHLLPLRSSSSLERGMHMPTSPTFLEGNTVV

[18] = cytotoxicity toward DRD oncogenic fibroblasts, dose response, cell-based, non-viral oncogenic, luminescence (AID 1934); format: functional; conditions: Homo sapiens
Vero [19] = experiment: cells; format: functional; conditions: Chlorocebus sabaeus
[20] = growth suppression of beta-catenin-knockout colon cells, dose response, cell-based, HCT116, human colon tumor (AID 1045); format: functional;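 further: HCT116 colon tumor cells with beta catenin knocked out; cells exposed to compound for 60 hours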
BJ [21] = experiment: cytotoxicity toward BJ-TERT-LT-ST fibroblasts, dose response, cell-based, RAS-independent, luminescence (AID 1935); format: functional; conditions: Homo sapiens;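 further: BJ fibroblasts immortalized with TERT plus LT and ST oncogenes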
[22] = M. tuberculosis H37Rv growth inhibitors, H37Rv strain (AID 1626); format: functional
[23] = growth suppression of PTEN-null colon cells, dose response, cell-based, HCT116 PTEN knockout (AID 1047); format: functional;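 further: HCT116 colon tumor cells with PTEN knocked out; cells exposed to compound for 60 hours before readout; potency for loss of cell viability measured by luminescence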
[24] = target: T6, Endoribonuclease toxin MazF (Escherichia coli K-12, UniProt P0AE70); experiment: MazF toxin RNase activators, dose response, biochemical, fluorescence, single-stranded RNA substrate, uHTS hits (AID 588481); format: functional
T6 sequence (P0AE70 whole entry): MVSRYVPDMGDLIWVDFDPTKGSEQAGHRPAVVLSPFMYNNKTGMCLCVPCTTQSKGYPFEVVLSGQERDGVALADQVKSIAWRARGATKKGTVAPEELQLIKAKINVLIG

[25] = Luminescence Cell-Based Dose Retest to Confirm Inhibitors of Cancer Stem Cells. [Related pubchem assays (depositor defined):AID2717, AID2721]; format: functional; conditions: Homo sapiens
Vero [26] = experiment: cells; format: functional, cell-based; conditions: Chlorocebus sabaeus
[27] = target: T6, Endoribonuclease toxin MazF; experiment: fluorescent RNA oligo signal without MazF, dose response, counter-screen for MazEF activator project, biochemical, fluorescence, single-stranded RNase substrate (AID 588502); format: functional
BJ [28] = experiment: cells; format: functional, cell-based; conditions: Homo sapiens
BJ [29] = experiment: cytotoxicity toward BJ-TERT fibroblasts, dose response, cell-based, RAS-independent, luminescence (AID 1933); format: functional; conditions: Homo sapiens

Cc1coc2c(O)cc3c(c12)OC1(N2CCCCC2)C(=O)NCCCC31 (centres undefined)
IC50 [1]: > 50 µM (not active)
IC50 (Genome polyprotein): 27.4 µM (active)
EC50 [2]: 11.3 µM (active)
IC50 (Nonstructural protein 1): > 100 µM (active)
IC50 [3]: 35.2 µM (active)
EC50 [4]: 11 µM (active)

N#Cc1ccc(Nc2nc(-c3ccc(O)cc3O)cs2)cc1
IC50 [5]: > 50 µM (not active)
IC50 [6]: 4.71 µM (active)

CCOC(=O)c1nn(-c2ccc(C)cc2)c(=O)c2c(N)scc12
IC50 [7]: > 67 µM (not active)
AC50 [8]: 89.9 µM (active)
EC50 (Protein RecA): 11.4 µM (active)
IC50 [9]: 9.99 µM (active)

Cc1nnc(NC(=O)c2nc(S(=O)(=O)Cc3ccccc3C)ncc2Cl)s1
EC50 [10]: 692 µM (active)
AC50 [8]: > 380 µM (inactive)
EC50 (Protein RecA): > 380 µM (inactive)
AC50 [11]: 0.812 µM (active)
IC50 [12]: 4.41 µM (active)
AC50 [13]: 14.5 µM (active)
AC50 [14]: 57 µM (active)

CCCC[C@H](CN[C@@H](CNC)[C@H](C)CC)NCCC12CCC(CC1)C2
IC50 [15]: > 20 µM (inactive)
IC50 [16]: 6.54 µM (active)

Cc1cc(C(=O)COC(=O)c2ccco2)c(C)n1Cc1ccccc1
EC50 [17]: > 30 µM (not active)

Cc1cccc(-n2c(/C=C/c3ccc([N+](=O)[O-])o3)nc3ccccc3c2=O)c1
EC50 [18]: 5.82 µM (active)
CC50 (Vero [19]): > 25 µM (active)
EC50 [20]: 0.61 µM (active)
EC50 (BJ [21]): 3.69 µM (inconclusive)
IC50 [22]: > 100 µM (active)
EC50 [23]: 0.552 µM (active)
EC50 [24]: > 99 µM (inactive)
AC50 [25]: 1.72 µM (active)
IC50 (Vero [26]): 10.8 µM (active)
EC50 [27]: 8.27 µM (active)
EC50 (BJ [28]): 4.86 µM (inconclusive)
EC50 (BJ [29]): 5.28 µM (inconclusive)
